Measurements taken from patent US20240158412A1 (Faxian Therapeutics, LLC, priority 2021, published 2024).

Molecular target: USP7 (Homo sapiens, UniProt Q93009)
Assay: biochemical
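Also: fluorescence intensity readout of USP7 enzymatic activity, reaction incubated 90 min at room temperature.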

Sequence of USP7 (Q93009 whole entry): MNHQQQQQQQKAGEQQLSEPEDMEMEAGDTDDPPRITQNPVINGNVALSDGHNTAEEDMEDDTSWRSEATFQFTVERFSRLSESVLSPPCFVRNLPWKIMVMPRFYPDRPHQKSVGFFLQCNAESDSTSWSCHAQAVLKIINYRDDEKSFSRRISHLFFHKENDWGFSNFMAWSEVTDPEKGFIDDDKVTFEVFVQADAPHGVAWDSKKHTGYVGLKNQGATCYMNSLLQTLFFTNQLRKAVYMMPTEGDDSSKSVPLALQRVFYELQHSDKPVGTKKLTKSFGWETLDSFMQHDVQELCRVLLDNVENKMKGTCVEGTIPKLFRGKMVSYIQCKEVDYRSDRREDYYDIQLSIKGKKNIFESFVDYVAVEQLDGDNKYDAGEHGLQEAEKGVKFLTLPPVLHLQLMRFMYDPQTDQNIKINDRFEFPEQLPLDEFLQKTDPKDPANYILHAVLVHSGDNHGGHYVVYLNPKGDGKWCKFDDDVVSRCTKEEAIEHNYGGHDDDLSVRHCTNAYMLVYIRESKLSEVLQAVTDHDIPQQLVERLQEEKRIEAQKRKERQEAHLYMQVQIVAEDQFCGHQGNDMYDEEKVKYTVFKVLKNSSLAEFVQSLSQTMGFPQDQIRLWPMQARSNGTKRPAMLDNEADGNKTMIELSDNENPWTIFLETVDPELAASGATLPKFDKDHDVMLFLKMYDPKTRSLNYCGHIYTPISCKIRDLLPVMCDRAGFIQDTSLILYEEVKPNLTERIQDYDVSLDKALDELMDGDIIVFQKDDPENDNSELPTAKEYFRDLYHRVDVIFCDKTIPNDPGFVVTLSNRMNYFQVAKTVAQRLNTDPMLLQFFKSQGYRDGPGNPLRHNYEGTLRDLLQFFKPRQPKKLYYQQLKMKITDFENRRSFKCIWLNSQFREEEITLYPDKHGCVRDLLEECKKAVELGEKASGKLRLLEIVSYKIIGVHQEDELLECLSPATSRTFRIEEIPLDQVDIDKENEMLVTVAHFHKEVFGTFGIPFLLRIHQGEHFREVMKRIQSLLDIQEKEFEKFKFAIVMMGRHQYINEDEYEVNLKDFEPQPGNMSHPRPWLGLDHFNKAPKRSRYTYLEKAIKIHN

| IC50 [nM] | Structure (SMILES) |
| --- | --- |
| 10 to 100 | O=C1OC[C@@H](C(F)(F)F)N1Cc1cc2nccc(-c3cc(Cl)cc4c3N([C@@H]3CNC5(CCC5)C3)CCC4)c2s1 [Example 157, (S)-3-((7-(6-chloro-1-((S)-5-azaspiro[3.4]octan-7-yl)-1,2,3,4-tetrahydroquinolin-8-yl)thieno[3,2-b]pyridin-2-yl)methyl)-4-(trifluoromethyl)oxazolidin-2-one] |
| < 10 | O=C1OC[C@H](C(F)(F)F)N1Cc1cc2nccc(-c3cc(Cl)cc4c3N([C@@H]3CNC5(CCC5)C3)CCC4)c2s1 [Example 158, (R)-3-((7-(6-chloro-1-((S)-5-azaspiro[3.4]octan-7-yl)-1,2,3,4-tetrahydroquinolin-8-yl)thieno[3,2-b]pyridin-2-yl)methyl)-4-(trifluoromethyl)oxazolidin-2-one] |
| < 10 | O=C1CN(C2CC(F)(F)C2)C(=O)N1Cc1cc2nccc(-c3cc(Cl)cc4c3N([C@@H]3CNC5(CCC5)C3)CCC4)c2s1 [Example 159, (S)-3-((7-(6-chloro-1-(5-azaspiro[3.4]octan-7-yl)-1,2,3,4-tetrahydroquinolin-8-yl)thieno[3,2-b]pyridin-2-yl)methyl)-1-(3,3-difluorocyclobutyl)imidazolidine-2,4-dione] |
| < 10 | O=C1CCC(=O)N1Cc1cc2nccc(-c3cc(C(F)(F)F)cc4c3N([C@@H]3CNC5(CCC5)C3)CCC4)c2s1 [Example 163, (S)-1-((7-(1-(5-azaspiro[3.4]octan-7-yl)-6-(trifluoromethyl)-1,2,3,4-tetrahydroquinolin-8-yl)thieno[3,2-b]pyridin-2-yl)methyl)pyrrolidine-2,5-dione] |
| 10 to 100 | O=C1CCC(=O)N1Cc1cc2nccc(-c3cc(Cl)cc4c3N([C@@H]3CNC5(CCC5)C3)C[C@@H]3C[C@H]43)c2s1 [Example 165a, 1-((7-((1aR,7bS)-6-chloro-3-((S)-5-azaspiro[3.4]octan-7-yl)-1a,2,3,7b-tetrahydro-1H-cyclopropa[c]quinolin-4-yl)thieno[3,2-b]pyridin-2-yl)methyl)pyrrolidine-2,5-dione] |
| 101 to 1000 | O=C1CCC(=O)N1Cc1cc2nccc(-c3cc(Cl)cc4c3N([C@H]3CNC5(CCC5)C3)C[C@@H]3C[C@H]43)c2s1 [Example 165b, 1-((7-((1aR,7bS)-6-chloro-3-((R)-5-azaspiro[3.4]octan-7-yl)-1a,2,3,7b-tetrahydro-1H-cyclopropa[c]quinolin-4-yl)thieno[3,2-b]pyridin-2-yl)methyl)pyrrolidine-2,5-dione] |
| < 10 | O=C1CCC(=O)N1Cc1cc2nccc(-c3cc(Cl)cc4c3N([C@@H]3CNC5(CCC5)C3)C[C@H]3C[C@@H]43)c2s1 [Example 165c, 1-((7-((1aS,7bR)-6-chloro-3-((S)-5-azaspiro[3.4]octan-7-yl)-1a,2,3,7b-tetrahydro-1H-cyclopropa[c]quinolin-4-yl)thieno[3,2-b]pyridin-2-yl)methyl)pyrrolidine-2,5-dione] |
| < 10 | Cc1cnn(Cc2cc3nccc(-c4cc(Cl)cc5c4N([C@@H]4CNC6(CCC6)C4)C[C@H]4C[C@@H]54)c3s2)c(=O)c1 [Example 166, 2-((7-((1aS,7bR)-6-chloro-3-((S)-5-azaspiro[3.4]octan-7-yl)-1a,2,3,7b-tetrahydro-1H-cyclopropa[c]quinolin-4-yl)thieno[3,2-b]pyridin-2-yl)methyl)-5-methylpyridazin-3(2H)-one] |
| < 10 | O=C1CCC(=O)N1Cc1cc2ncnc(-c3cc(Cl)cc4c3N([C@@H]3CNC5(CCC5)C3)C[C@H]3C[C@@H]43)c2s1 [Example 167a, 1-((4-((1aS,7bR)-6-chloro-3-((S)-5-azaspiro[3.4]octan-7-yl)-1a,2,3,7b-tetrahydro-1H-cyclopropa[c]quinolin-4-yl)thieno[3,2-d]pyrimidin-6-yl)methyl)pyrrolidine-2,5-dione] |
| > 1000 | O=C1CCC(=O)N1Cc1cc2ncnc(-c3cc(Cl)cc4c3N([C@H]3CNC5(CCC5)C3)C[C@H]3C[C@@H]43)c2s1 [Example 167b, 1-((4-((1aS,7bR)-6-chloro-3-((R)-5-azaspiro[3.4]octan-7-yl)-1a,2,3,7b-tetrahydro-1H-cyclopropa[c]quinolin-4-yl)thieno[3,2-d]pyrimidin-6-yl)methyl)pyrrolidine-2,5-dione] |
| 10 to 100 | O=C1CCC(=O)N1Cc1cc2ncnc(-c3cc(Cl)cc4c3N([C@H]3CNC5(CCC5)C3)C[C@@H]3C[C@H]43)c2s1 [Example 167c, 1-((4-((1aR,7bS)-6-chloro-3-((R)-5-azaspiro[3.4]octan-7-yl)-1a,2,3,7b-tetrahydro-1H-cyclopropa[c]quinolin-4-yl)thieno[3,2-d]pyrimidin-6-yl)methyl)pyrrolidine-2,5-dione] |
| < 10 | N#Cc1cc(-c2ccnc3cc(CN4C(=O)CCC4=O)sc23)c2c(c1)[C@@H]1C[C@@H]1CN2[C@@H]1CNC2(CCC2)C1 [Example 168, (1aS,7bR)-4-(2-((2,5-dioxopyrrolidin-1-yl)methyl)thieno[3,2-b]pyridin-7-yl)-3-((S)-5-azaspiro[3.4]octan-7-yl)-1a,2,3,7b-tetrahydro-1H-cyclopropa[c]quinoline-6-carbonitrile] |
| < 10 | N#Cc1cc(-c2ccnc3cc(Cn4c(=O)ccn(CC(F)(F)F)c4=O)sc23)c2c(c1)[C@@H]1C[C@@H]1CN2[C@@H]1CNC2(CCC2)C1 [Example 169, (1aS,7bR)-4-(2-((2,6-dioxo-3-(2,2,2-trifluoroethyl)-3,6-dihydropyrimidin-1(2H)-yl)methyl)thieno[3,2-b]pyridin-7-yl)-3-((S)-5-azaspiro[3.4]octan-7-yl)-1a,2,3,7b-tetrahydro-1H-cyclopropa[c]quinoline-6-carbonitrile] |
| < 10 | NC(=O)c1cc(-c2ccnc3cc(Cn4c(=O)ccn(CC(F)(F)F)c4=O)sc23)c2c(c1)[C@@H]1C[C@@H]1CN2[C@@H]1CNC2(CCC2)C1 [Example 170, (1aS,7bR)-4-(2-((2,6-dioxo-3-(2,2,2-trifluoroethyl)-3,6-dihydropyrimidin-1(2H)-yl)methyl)thieno[3,2-b]pyridin-7-yl)-3-((S)-5-azaspiro[3.4]octan-7-yl)-1a,2,3,7b-tetrahydro-1H-cyclopropa[c]quinoline-6-carboxamide] |
| 10 to 100 | CC1(C)C2C(=O)N(Cc3cc4nccc(-c5cc(Cl)cc6c5N([C@@H]5CNC7(CCC7)C5)CCO6)c4s3)C(=O)C21 (stereo partly drawn) [Example 172, 3-((7-(7-chloro-4-((S)-5-azaspiro[3.4]octan-7-yl)-3,4-dihydro-2H-benzo[b][1,4]oxazin-5-yl)thieno[3,2-b]pyridin-2-yl)methyl)-6,6-dimethyl-3-azabicyclo[3.1.0]hexane-2,4-dione] |
| < 10 | O=C1COc2cc(Cl)cc(-c3ccnc4cc(Cn5ncc(C6CC6)cc5=O)sc34)c2N1[C@@H]1CNC2(CCC2)C1 [Example 174, (S)-7-chloro-5-(2-((4-cyclopropyl-6-oxopyridazin-1(6H)-yl)methyl)thieno[3,2-b]pyridin-7-yl)-4-(5-azaspiro[3.4]octan-7-yl)-2H-benzo[b][1,4]oxazin-3(4H)-one] |
| < 10 | Cc1ccnn(Cc2cc3nccc(-c4cc(C(F)(F)F)cc5c4N([C@@H]4CNC6(CCC6)C4)CCO5)c3s2)c1=O [Example 176b, (S)-2-((7-(4-(5-azaspiro[3.4]octan-7-yl)-7-(trifluoromethyl)-3,4-dihydro-2H-benzo[b][1,4]oxazin-5-yl)thieno[3,2-b]pyridin-2-yl)methyl)-4-methylpyridazin-3(2H)-one] |
| 101 to 1000 | N#Cc1cc2c(c(-c3ccnc4cc(CN5C(=O)C6CC6C5=O)sc34)c1)N([C@H]1CNC3(CCCC3)C1)CCC2 (stereo partly drawn) [Example 178a, 8-(2-((2,4-dioxo-3-azabicyclo[3.1.0]hexan-3-yl)methyl)thieno[3,2-b]pyridin-7-yl)-1-((R)-1-azaspiro[4.4]nonan-3-yl)-1,2,3,4-tetrahydroquinoline-6-carbonitrile] |
| < 10 | N#Cc1cc2c(c(-c3ccnc4cc(CN5C(=O)C6CC6C5=O)sc34)c1)N([C@@H]1CNC3(CCCC3)C1)CCC2 (stereo partly drawn) [Example 178b, 8-(2-((2,4-dioxo-3-azabicyclo[3.1.0]hexan-3-yl)methyl)thieno[3,2-b]pyridin-7-yl)-1-((S)-1-azaspiro[4.4]nonan-3-yl)-1,2,3,4-tetrahydroquinoline-6-carbonitrile] |
| 10 to 100 | O=C1CCC(=O)N1Cc1cc2nccc(-c3cc(Cl)cc4c3N(C3CC5(CCCN5)C3)CCC4)c2s1 (stereo not drawn) [Example 180, 1-((7-(6-chloro-1-(5-azaspiro[3.4]octan-2-yl)-1,2,3,4-tetrahydroquinolin-8-yl)thieno[3,2-b]pyridin-2-yl)methyl)pyrrolidine-2,5-dione] |
| < 10 | O=C1C2CC2C(=O)N1Cc1cc2nccc(-c3cc(Cl)cc4c3N([C@@H]3CN[C@@H](CO)C3)CCC4)c2s1 (stereo partly drawn) [Example 185, 3-((7-(6-chloro-1-((3S,5R)-5-(hydroxymethyl)pyrrolidin-3-yl)-1,2,3,4-tetrahydroquinolin-8-yl)thieno[3,2-b]pyridin-2-yl)methyl)-3-azabicyclo[3.1.0]hexane-2,4-dione] |
| < 10 | O=c1cc(C2CC2)cnn1Cc1cc2nccc(-c3cc(Cl)cc4c3N([C@@H]3CN[C@@H](CO)C3)CCC4)c2s1 [Example 186, 2-[[7-[6-chloro-1-[(3S,5R)-5-(hydroxymethyl)pyrrolidin-3-yl]-3,4-dihydro-2H-quinolin-8-yl]thieno[3,2-b]pyridin-2-yl]methyl]-5-cyclopropyl-pyridazin-3-one] |
| < 10 | O=c1cc(C2CC2)cnn1Cc1cc2nccc(-c3cc(Cl)cc4c3N([C@@H]3CN[C@H](CO)C3)CCC4)c2s1 [Example 187, 2-((7-(6-chloro-1-((3S,5S)-5-(hydroxymethyl)pyrrolidin-3-yl)-1,2,3,4-tetrahydroquinolin-8-yl)thieno[3,2-b]pyridin-2-yl)methyl)-5-cyclopropylpyridazin-3(2H)-one] |
| < 10 | CC1(c2cnn(Cc3cc4nccc(-c5cc(Cl)cc6c5N([C@@H]5CN[C@@H](CO)C5)CCC6)c4s3)c(=O)c2)CC1 [Example 188, 2-((7-(6-chloro-1-((3S,5R)-5-(hydroxymethyl)pyrrolidin-3-yl)-1,2,3,4-tetrahydroquinolin-8-yl)thieno[3,2-b]pyridin-2-yl)methyl)-5-(1-methylcyclopropyl)pyridazin-3(2H)-one] |
